According to US7030121B2, “Pyrazolopyrazine compound and pharmaceutical use thereof” (Astellas Pharma Inc., priority 2001, dated 2006):

Assays:
human A2a receptor = human A2a receptor (Homo sapiens, UniProt P29274); assay: Adenosine antagonistic activity, radioligand binding with [3H]CGS 21680; conditions: [3H]CGS 21680 20 nM
Procedure: (§1) Test 1: Adenosine Antagonistic Activity
(§2) The adenosine antagonistic activity [Ki(nM)] of the test compound was examined by radioligand binding techniques using 8-cyclopentyl-1,3-dipropylxanthine, [dipropyl-2,3-^3H(N)] ([^3H]DPCPX, 4.5 nM) for human A1 receptor and [^3H]CGS 21680 (20 nM) for human A2a receptor.

human A1 receptor = molecular target: T1, human A1 receptor (Homo sapiens, UniProt P30542); assay: Adenosine antagonistic activity, radioligand binding with [3H]DPCPX; conditions: [3H]DPCPX 4.5 nM
T1 sequence (P30542 1-326): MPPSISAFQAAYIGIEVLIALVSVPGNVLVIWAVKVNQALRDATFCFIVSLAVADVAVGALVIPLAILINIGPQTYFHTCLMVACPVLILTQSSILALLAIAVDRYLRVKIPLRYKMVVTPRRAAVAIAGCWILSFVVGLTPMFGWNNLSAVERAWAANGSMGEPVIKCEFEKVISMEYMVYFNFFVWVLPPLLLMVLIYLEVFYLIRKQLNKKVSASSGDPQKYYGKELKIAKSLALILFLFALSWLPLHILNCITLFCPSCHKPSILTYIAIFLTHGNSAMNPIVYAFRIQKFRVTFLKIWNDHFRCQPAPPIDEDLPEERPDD
Procedure: as §1, §2

ddY mice = assay: Anticatalepsy activity in mouse (haloperidol-induced catalepsy); format: in vivo; conditions: 3.2 mg/kg orally, ddY mice n=7; haloperidol 0.32 mg/kg i.p. 30 min later; measured 30 min after injection
Procedure: Test 2: Anticatalepsy Activity in Mouse [I] Test Method
The test compound (3.2 mg/kg) was administered orally with ddY mice (n=7). Then, haloperidol (0.32 mg/kg) was injected intraperitoneally 30 min. after the administration of the compound. Thirty min. after the injection, the cataleptic responses of mice were measured. The forelimbs of each mouse were placed on a 3 cm high, 3 mm wide horizontal bar, and the duration of cataleptic posture was measured for up to 30 sec.

Chain of human A2a receptor (P29274 whole entry): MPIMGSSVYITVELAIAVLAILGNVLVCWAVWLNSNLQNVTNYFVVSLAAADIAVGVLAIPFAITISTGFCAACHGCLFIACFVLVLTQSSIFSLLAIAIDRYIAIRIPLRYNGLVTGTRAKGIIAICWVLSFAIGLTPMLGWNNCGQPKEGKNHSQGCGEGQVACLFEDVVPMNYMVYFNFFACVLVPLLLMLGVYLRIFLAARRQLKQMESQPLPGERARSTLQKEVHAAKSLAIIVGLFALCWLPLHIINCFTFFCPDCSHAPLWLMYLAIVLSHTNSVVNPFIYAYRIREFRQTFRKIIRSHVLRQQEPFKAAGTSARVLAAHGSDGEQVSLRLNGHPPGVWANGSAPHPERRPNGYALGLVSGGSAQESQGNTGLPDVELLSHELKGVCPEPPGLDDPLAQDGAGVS

| melting point | Ki (human A2a receptor) | Ki (human A1 receptor) | Compound | Manifestation rate of catalepsy (number of mouse) (ddY mice) |
| --- | --- | --- | --- | --- |
| 214 to 215 °C | – | – | CC(C)n1cc(-c2c(-c3ccc(F)cc3)nn3ccncc23)ccc1=O [Example 8, 3-(1-Isopropyl-2(1H)-pyridinon-5-yl)-2-(4-fluorophenyl)pyrazolo[1,5-a]pyrazine] | – |
| 183 to 184 °C | – | – | CCCn1cc(-c2c(-c3ccc(F)cc3)nn3ccncc23)ccc1=O [Example 10, 3-(1-n-Propyl-2(1H)-pyridinon-5-yl)-2-(4-fluorophenyl)pyrazolo[1,5-a]pyrazine] | – |
| 173 to 174 °C | – | – | CCn1cc(-c2c(-c3ccccc3F)nn3ccncc23)ccc1=O [Example 14, 3-(1-Ethyl-2(1H)-pyridinon-5-yl)-2-(2-fluorophenyl)pyrazolo[1,5-a]pyrazine] | – |
| 193 to 194 °C | – | – | Cn1cc(-c2c(-c3ccccc3F)nn3ccncc23)ccc1=O [Example 12, 3-(1-Methyl-2(1H)-pyridinon-5-yl)-2-(2-fluorophenyl)pyrazolo[1,5-a]pyrazine] | – |
| 127 to 128 °C | – | – | CCCn1cc(-c2c(-c3ccccc3F)nn3ccncc23)ccc1=O [Example 15, 3-(1-n-Propyl-2(1H)-pyridinon-5-yl)-2-(2-fluorophenyl)pyrazolo[1,5-a]pyrazine] | – |
| 150 to 151 °C | – | – | CC(C)n1cc(-c2c(-c3ccccc3F)nn3ccncc23)ccc1=O [Example 13, 3-(1-Isopropyl-2(1H)-pyridinon-5-yl)-2-(2-fluorophenyl)pyrazolo[1,5-a]pyrazine] | – |
| 165 to 166 °C | 4.44 nM | 0.36 nM | CCn1cc(-c2c(-c3ccc(F)cc3)nn3ccncc23)ccc1=O [Example 9, 3-(1-Ethyl-2(1H)-pyridinon-5-yl)-2-(4-fluorophenyl)pyrazolo[1,5-a]pyrazine] | 0/7 |

The remaining lines, values behind:

| Compound | melting point | Ki (human A2a receptor) | Ki (human A1 receptor) | Manifestation rate of catalepsy (number of mouse) (ddY mice) |
| --- | --- | --- | --- | --- |
| O=c1ccc(-c2c(-c3ccccc3)nn3ccncc23)c[nH]1 [Example 1, 3-(2(1H)-pyridinon-5-yl)-2-phenylpyrazolo[1,5-a]pyrazine] | > 250 °C | 0.68 nM | 0.18 nM | 1/7 |
| Cn1cc(-c2c(-c3ccc(F)cc3)nn3ccncc23)ccc1=O [Example 7, 3-(1-Methyl-2(1H)-pyridinon-5-yl)-2-(4-fluorophenyl)pyrazolo[1,5-a]pyrazine] | 222 to 223 °C | – | – | – |
| Cn1cc(-c2c(-c3ccccc3)nn3ccncc23)ccc1=O [Example 2, 3-(1-methyl-2(1H)-pyridinon-5-yl)-2-phenylpyrazolo[1,5-a]pyrazine] | 168 to 169 °C | 3.28 nM | 0.35 nM | 0/7 |
| CCn1cc(-c2c(-c3ccccc3)nn3ccncc23)ccc1=O [Example 4, 3-(1-Ethyl-2 (1H)-pyridinon-5-yl)-2-phenylpyrazolo[1,5-a]pyrazine] | 192 to 193 °C | – | – | – |
| CCCn1cc(-c2c(-c3ccccc3)nn3ccncc23)ccc1=O [Example 5, 3-(1-n-Propyl-2(1H)-pyridinon-5-yl)-2-phenylpyrazolo[1,5-a]pyrazine] | 165 to 166 °C | – | – | – |
| CC(C)n1cc(-c2c(-c3ccccc3)nn3ccncc23)ccc1=O [Example 3, 3-(1-Isopropyl-2(1H)-pyridinon-5-yl)-2-phenylpyrazolo[1,5-a]pyrazine] | 196 to 197 °C | – | – | – |
